Reference: patent US8883169B2, “Immunogen platform” (Chrontech Pharma AB, priority 2007, dated 2014)

Assays:
[1] = tested on: NS3/4A-expressing EL-4 lymphoma cells; assay: In vivo inhibition of growth of NS3/4A-expressing EL-4 tumor cells; conditions: C57BL/6 mice immunized only once
Method: To confirm that inhibition of tumor growth using the NS3/4A-expressing EL-4 cell line is fully dependent on an NS3/4A-specific immune response a control experiment was performed. […] Two weeks after the last immunization the mice were challenged with an s.c. injection of 10^6 native EL-4 or NS3/4A-expressing EL-4 cells (NS3/4A-EL-4). An NS3/4A-specific immune response was required for protection, since only the immunized mice were protected against growth of the NS3/4A-EL-4 cell line (FIG. 10A). Thus, this H-2^b-restricted model behaves similarly to the SP2/0 H-2^d restricted model.
As set forth herein, the NS3/4A gene can be used as a vaccine. Although it had been determined that NS3/4A quickly primed in vivo functional CTLs, the effect of therapeutic immunization after the injection of tumor cells was analyzed next. Groups of ten C57BL/6 mice were challenged with 10^6 NS3/4A-EL-4 tumor cells. […]
In vivo challenge of immunized mice with the NS3/4A-expressing SP2/0 myeloma or EL-4 lymphoma cell line was performed according to the method described by Encke et al., supra. […] The kinetics of the tumor growth was determined by measuring the tumor size through the skin at days six to 20. […]
To test the therapeutic effect of the vaccines groups of mice were inoculated with the tumor cells as described above. […] The tumor growth was monitored from day 6 to day 20.

[2] = tested on: NS3-specific IgG1 and IgG2a antibodies; assay: EIA of NS3-specific IgG subclasses (IgG1, IgG2a); type: in vivo, mice; conditions: 10 μg rNS3 with 0.1 or 1.0 mg ribavirin i.p. at weeks 0 and 4, bled at week six
antibodies to rNS3 = assay: EIA of antibodies to rNS3 after immunization with rNS3 with or without ribavirin; type: in vivo, Balb/c mice
Method: In a first set of experiments, groups of three to five Balb/c mice (BK Universal, Uppsala, Sweden) were immunized i.p or s.c. (e.g., at the base of the tail) with 10 μg or 100 μg of recombinant hepatitis C virus non-structural 3 (rNS3) protein. […] Mice were injected with a total volume of […] per injection.
At two and four weeks following i.p. immunization, all mice were bled by retro-orbital sampling. Serum samples were collected and analyzed for the presence of antibodies to rNS3. To determine the antibody titer, an enzyme immunoassay (EIA) was performed. (See e.g., Hultgren et al., J Gen Virol. 79:2381-91 (1998) and Hultgren et al., Clin. Diagn. Lab. Immunol. 4:630-632 (1997)). The antibody levels were recorded as the highest serum dilution giving an optical density at 405 nm more than twice that of non-immunized mice.
At four, six and eight weeks the mice were bled and serum was separated and frozen. After completion of the study, sera were tested for the levels of antibodies to recombinant NS3, as described above. Mean antibody levels to rNS3 were compared between the groups using Student's t-test (parametric analysis) or Mann-Whitney (non-parametric analysis) and the software package StatView 4.5 (Abacus Concepts, Berkeley, Calif.). […] The values given represent end point titres to recombinant rNS3.
The levels of antibody to the antigen were then determined by EIA.
A second set of experiments was also performed. […] The mice were bled at week six and rNS3-specific IgG levels were determined by EIA as described previously.

antibodies to HBsAg = assay: EIA of antibody titer to HBsAg after Engerix vaccine with or without ribavirin; type: in vivo, mice; conditions: 1 mg ribavirin, i.p., booster on week four, bled on week six
Excerpt: (Engerix, SKB). […] A booster containing the same mixture was given on week four and all mice were bled on week six.

[3] = tested on: CD4+ T cells of lymph nodes; assay: In vitro recall assay, CD4+ T cell proliferation by [3H]thymidine incorporation; type: cell-based, mice; conditions: 100 μg rNS3 mixed with 1 mg ribavirin s.c.; ten days post-immunization; 96 h of culture
Method: This assay can be used with any ribavirin derivative or combinations of ribavirin derivatives to determine the extent that a particular vaccine formulation modulates a cellular immune response. […] The mice were sacrificed ten days post-immunization and their lymph nodes were harvested and drained. In vitro recall assays were then performed. (See e.g., Hultgren et al., J Gen Virol. 79:2381-91 (1998) and Hultgren et al., Clin. Diagn. Lab. Immunol. 4:630-632 (1997)). The amount of CD4^+ T cell proliferation was determined at 96 h of culture by the incorporation of [^3H]thymidine.

IgE to Betv1 = assay: ELISA of IgE antibodies on recombinant birch protein; type: in vivo, C57/BL6 mice; conditions: immunized twice, bled two weeks after the second immunization
Method: (§1) Groups of C57/BL6 mice were immunized twice with 50 μg of either plasmid containing a codon optimized NS3/4A gene, a NS3/4A-Betv1 fusion gene containing a protease cleavage site between NS3 and NS4A as well as a protease cleavage site between the NS4A and the birch antigen (SEQ ID NO: 1380), or a NS3/4A-Betv1 fusion gene containing a protease cleavage site between NS3 and NS4A, a protease cleavage site between the NS4A and the birch antigen as well as two additional protease cleavage sites within the birch antigen (SEQ ID NO: 1381) using an electroporation device. Another group of mice were immunized twice with recombinant Betv1 protein (rBetv1) in Freunds incomplete adjuvant. The two immunizations were 4 weeks apart. The mice were bled two weeks after the second immunizations.
Dilutions of the sera were tested on ELISA plates coated with recombinant birch protein. A secondary antibody specific for IgE antibodies was used to detect bound antibody. […] The DNA constructs are thus not allergenic in that they prime a Th1 type response.

[4] = tested on: NS3 and birch specific T cells; assay: ELISpot assay of γ-IFN-secreting CTLs and T helper cells (NS3 and birch specific); type: cell-based, C57/BL6 mice; conditions: immunized twice, 4 weeks apart; two weeks after the second injection
Method: as §1, with “sacrificed” for “bled”, “immunizations and the lymph nodes and spleens of each group were collected and analyzed.” for “immunizations.”
The presence of γ-IFN-secreting CTLs and T helper (Th) cells to antigens in splenocyte or lymph node cultures were evaluated using a commercially available ELISpot assay. […] The ability of NS3-specific and birch-specific Th and CTLs to produce γ-IFN recalled by a concanavalin-A (con-A) as a positive control, media alone as a negative control, native HBcAg, recombinant HBcAg (rHBcAg), various concentrations of NS3/4A CTL peptide, various concentrations of rNS3, and various concentrations of rBetv1 was analyzed via the ELISpot.

GAVQNEVTL (Artificial Peptide, NS3/4A H-2D Binding Peptide) [NS3-derived CTL peptide]
protection against growth of NS3/4A-EL-4 tumors after a single immunization [1]: not protected

NC(=O)c1ncn([C@@H]2O[C@H](CO)[C@@H](O)[C@H]2O)n1 [ribavirin, 1-β-D-ribofuranosyl-1,2,4-triazole-3-carboxamide]
effect on the IgG subclass response in the NS3-specific immune response [2]: does not change the IgG subclass response | effect on antibody levels, higher doses (1-10 mg) of ribavirin (antibodies to rNS3; 20 μg rNS3, weeks 1 and 3): enhance antibody levels at week three | effect on antibody levels, low doses (<1 mg) of ribavirin (antibodies to rNS3; 20 μg rNS3, weeks 1 and 3): enhance antibody levels at week one but not at week three | antibody titer compared to formulations composed of only rNS3 (antibodies to rNS3; 1 mg of ribavirin and either 10 μg or 100 μg of rNS3, two weeks post-immunization): significantly greater antibody titer | immune response compared to that elicited without ribavirin (antibodies to rNS3; approximately 1 to 3 mg doses of ribavirin): more than 12 times | response to Engerix vaccine (HBsAg and alum) (antibodies to HBsAg): enhanced the response to 2 μg of an existing vaccine | T cell proliferative response compared to 100 μg rNS3 in PBS [3]: much greater T cell proliferative response

B1: rBetv1: recombinant Betv1 protein (major Birch allergen) in Freunds incomplete adjuvant (protein, UniProt P15494 2-160, looked up)
Major pollen allergen Bet v …: GVFNYETETTSVIPAARLFKAFILDGDNLFPKVAPQAISSVENIEGNGGPGTIKKISFPEGFPFKYVKDRVDEVDHTNFKYNYSVIEGGPIGDTLEKISNEIKIVATPDGGSILKISNKYHTKGDHEVKAEQVKASKEMGETLLRAVESYLLAHSDAYN
modifications: in Freund's incomplete adjuvant
priming of IgE to Betv1 (IgE to Betv1): shows birch-specific IgE antibodies | priming of IFN-γ producing Betv1-specific T cells [4]: fails to do
